The record followed here is US10335370B2, “Controlled release composition” (priority 2008, dated 2019).

Holding throughout (type): in vivo
One experiment relates to SGC-7901 tumor. In words: Tumor growth inhibition, SGC-7901 tumor in nude mice. The note with it: 1.6 mg ip, four injections; 21st day after inoculation. How it is done: Fluorouracil implant prepared according to Example 2 were used in this study. SGC-7901 tumor tissues at vigorous growth stage were obtained and cut into pieces of about 1.5 mm^3. The tumor tissue pieces were inoculated subcutaneously to the right armpit of nude mice, under sterile conditions. The mice were randomized into 6 groups at the sixth day after inoculation. Three groups were treated with different doses of fluorouracil implant prepared according to Example 2. Another group was treated with excipient at the sixth day after noculation. The fluorouracil implant or excipient was implanted subcutaneously near the tumor. The positive group received four intraperitoneal injections of fluorouracil in total at an interval of twice a week. The negative control group received four intraperitoneal injections of normal saline in total at an interval of twice a week. The mice were sacrificed at the 21st day after inoculation, and the tumor mass were peeled and weighed. The tumor growth inhibition rate was calculated using the following equation: […]

Experiment [1] concerns Pancreatic cancer cell line PC3. In words: Tumor size, pancreatic cancer PC3 in nude mice. The following applies: Group B, i.v. 10 mg/kg. How it is done:
Fluorouracil implant composition prepared according to Example 2 was tested for its efficacy on pancreatic cancer. Pancreatic cancer cell line PC3 was cultured and inoculated subcutaneously to 70 nude mice at the right armpit at the dose of 2×10^6 cells per inoculation. Tumor grew to the size of about 4 mm×4 mm×4 mm 4 weeks after the implant. 60 nude mice having tumors of similar sizes were selected and randomized into 5 groups with 12 mice in each group: Group A was administered intravenously through the angular vein with normal saline at the dose of 0.1 ml per mice; Group B was administered intravenously through the angular vein with 0.1 ml fluorouracil solution in normal saline at the dose of 10 mg/kg; Group C was implanted with blank matrix; Group D was implanted with fluorouracil implant composition into the pancreatic tumor mass at the dose of 4 mg/kg; and Group E was implanted with fluorouracil implant composition into the pancreatic tumor mass at the dose of 1 mg/kg. The size of the tumor mass was measured before and after treatment.

The next experiment relates to H22 tumor cell. The experiment in a line: Tumor growth inhibition, H22 tumor in mice. The note with it: 12 mg/kg i.p., four injections; 15th day after inoculation. The protocol: Cisplatin implant prepared according to Example 5 was used in this study. Ascites fluid was taken from d7 H22 passage mice under sterile conditions, and the ascites fluid was diluted with normal saline to prepare tumor cell suspension at a concentration of 1.0×10^7 cells/ml. Each mouse received a subcutaneous injection of 0.2 ml tumor cell suspension at the right armpit (number of inoculated cells: 2×10^6). The mice were randomized into 6 groups the next day after inoculation, cisplatin implant or excipient control was implanted near the tumor at the seventh day after inoculation. The positive control group received an intraperitoneal injection of cisplatin the next day after inoculation, and four injections in total at an interval of twice a week. The negative control group received an intraperitoneal injection of normal saline the next day after inoculation, and four injections in total at an interval of twice a week. The mice were sacrificed at the 15th day after inoculation, and the tumor mass were peeled and weighted. Tumor growth inhibition rate was calculated using the following equation: […]

Regarding `O=c1[nH]cc(F)c(=O)[nH]1` [fluorouracil], the “Tumor growth inhibition rate (%)” value in the experiment with SGC-7901 tumor is 75.76%. Also, the “Tumor weight X ± SD” value with SGC-7901 tumor amounted to 0.71 ± 0.42 g. In addition, the tumor size turned out to be 72.3 mm^3 in experiment [1] (3rd day); 96.62 ± 20.5 mm^3 in experiment [1] (6th day); 107.3 ± 20.9 mm^3 in experiment [1] (10th day); 121.6 ± 14.3 mm^3 in experiment [1] (14th day); 61.5 ± 8.7 mm^3 in experiment [1] (Before treatment).
For the molecule `N.N.[Cl][Pt][Cl]` [cisplatin], in the experiment with H22 tumor cell, the “Tumor growth inhibition rate (%)” value is listed as 19.68% and the “Tumor weight X ± SD” value worked out at 2.98 ± 1.14 g.
